Experimental data taken from patent US9125939B2, “Carbostyril derivatives and mood stabilizers for treating mood disorders” (Otsuka Pharmaceutical Co., Ltd., priority 2003, dated 2015).

How the values were obtained:
[1] = tested on: acute manic or mixed bipolar episodes; settings: cotherapy vs monotherapy
[2] = tested on: acute mania in adolescents with bipolar disorder; assay: double-blind, randomized, placebo-controlled study as adjunctive treatment to divalproex for adolescent mania (Examples 7 and 8); format: in vivo, human
[3] = DVP + about 10 mg/day, 6 weeks, vs DVP+placebo

SMILES: O=C1CCc2ccc(OCCCCN3CCN(c4cccc(Cl)c4Cl)CC3)cc2N1 [aripiprazole, 7-{4-[4-(2,3-dichlorophenyl)-1-piperazinyl]butoxy}-3,4-dihydro-2(1H)-quinolinone]
- HAMD-21 total scores [1]: total scores more than monotherapy
- YMRS response rate [2, 3]: significantly greater
- reduction in YMRS scores from baseline to endpoint [2, 3]: greater reduction
- Sedation, rated as mild or moderate ([2]; DVP combination vs DVP+placebo): more common
- safety measures, group differences from baseline to endpoint ([2]; DVP combination vs DVP+placebo): No significant group differences
- tolerability in combination with DVP ([2]; treatment of mania): well tolerated
